According to the NIST ThermoML archive (doi:10.1021/je200195q):
± gives the expanded uncertainty stated by the source.

Experiment: activity coefficient (dimensionless); of the first substance listed, at infinite dilution; xn = mol fraction of the nth substance listed
Conditions: 101 kPa, Liquid, Chromatography, x1 = 0

Cc1cccc(C)c1 [1,3-dimethylbenzene] + CCCCCC[n+]1ccn(C)c1.FC(F)(F)C(F)(F)[P-](F)(F)(F)(C(F)(F)C(F)(F)F)C(F)(F)C(F)(F)F
activity coefficient (312.8 K): 0.939 ± 0.059
activity coefficient (332.85 K): 0.997 ± 0.062
activity coefficient (354.65 K): 1.01 ± 0.063

CC#N [acetonitrile] + CCCCCCCCCCn1cc[n+](CCCCCCCCCC)c1C.O=S(=O)([N-]S(=O)(=O)C(F)(F)F)C(F)(F)F
activity coefficient (323.1 K): 0.47 ± 0.037
activity coefficient (333.15 K): 0.453 ± 0.036
activity coefficient (343.15 K): 0.44 ± 0.035

ClCCl [dichloromethane] + CCCCCCCCCCn1cc[n+](CCCCCCCCCC)c1C.O=S(=O)([N-]S(=O)(=O)C(F)(F)F)C(F)(F)F
activity coefficient (323.1 K): 0.33 ± 0.032
activity coefficient (333.15 K): 0.341 ± 0.032
activity coefficient (343.15 K): 0.351 ± 0.032

CC(C)OC(C)C [diisopropyl ether] + CCCCCCCCCCn1cc[n+](CCCCCCCCCC)c1C.O=S(=O)([N-]S(=O)(=O)C(F)(F)F)C(F)(F)F
activity coefficient (323.1 K): 1.12 ± 0.071
activity coefficient (333.15 K): 1.23 ± 0.079
activity coefficient (343.15 K): 1.23 ± 0.079

CCCCCCCCC [nonane] + CCCCCCCCCCn1cc[n+](CCCCCCCCCC)c1C.O=S(=O)([N-]S(=O)(=O)C(F)(F)F)C(F)(F)F
activity coefficient (323.1 K): 3.31 ± 0.23
activity coefficient (333.15 K): 3.17 ± 0.22
activity coefficient (343.15 K): 3.45 ± 0.23

CCC=O [propanal] + CCCCn1cc[n+](C)c1.O=S(=O)([N-]S(=O)(=O)C(F)(F)C(F)(F)F)C(F)(F)C(F)(F)F
activity coefficient (322.55 K): 0.539 ± 0.039
activity coefficient (342.75 K): 0.533 ± 0.039
activity coefficient (362.65 K): 0.522 ± 0.039

c1ccsc1 [thiophene] + CCCCn1cc[n+](C)c1.O=S(=O)([N-]S(=O)(=O)C(F)(F)C(F)(F)F)C(F)(F)C(F)(F)F
activity coefficient (322.55 K): 0.977 ± 0.061
activity coefficient (342.75 K): 0.973 ± 0.061
activity coefficient (362.65 K): 0.981 ± 0.062

CCC=O [propanal] + CCCCCC[n+]1ccn(C)c1.FC(F)(F)C(F)(F)[P-](F)(F)(F)(C(F)(F)C(F)(F)F)C(F)(F)C(F)(F)F
activity coefficient (312.8 K): 0.274 ± 0.03
activity coefficient (332.85 K): 0.283 ± 0.03
activity coefficient (354.65 K): 0.285 ± 0.031

CCO [ethanol] + CCCCn1cc[n+](C)c1.O=S(=O)([N-]S(=O)(=O)C(F)(F)C(F)(F)F)C(F)(F)C(F)(F)F
activity coefficient (322.55 K): 1.65 ± 0.11
activity coefficient (342.75 K): 1.37 ± 0.089
activity coefficient (362.65 K): 1.18 ± 0.075

CCOCC [diethyl ether] + CCCCCCCCCCn1cc[n+](CCCCCCCCCC)c1C.O=S(=O)([N-]S(=O)(=O)C(F)(F)F)C(F)(F)F
activity coefficient (323.1 K): 0.746 ± 0.049
activity coefficient (333.15 K): 0.771 ± 0.05
activity coefficient (343.15 K): 0.773 ± 0.051

CCCC(C)=O [pentan-2-one] + CCn1cc[n+](C)c1.CS(=O)(=O)[O-]
activity coefficient (312.55 K): 7.79 ± 0.53
activity coefficient (322.45 K): 7.7 ± 0.53
activity coefficient (332.45 K): 7.57 ± 0.52

CCCCCCCCCCC [undecane] + CCCCCC[n+]1ccn(C)c1.FC(F)(F)C(F)(F)[P-](F)(F)(F)(C(F)(F)C(F)(F)F)C(F)(F)C(F)(F)F
activity coefficient (312.8 K): 31 ± 2.1
activity coefficient (332.85 K): 25.5 ± 1.7
activity coefficient (354.65 K): 19.9 ± 1.4

CC(C)O [propan-2-ol] + CCn1cc[n+](C)c1.CS(=O)(=O)[O-]
activity coefficient (312.55 K): 0.924 ± 0.058
activity coefficient (322.45 K): 0.907 ± 0.058
activity coefficient (332.45 K): 0.877 ± 0.056

c1ccncc1 [pyridine] + CCCCCC[n+]1ccn(C)c1.FC(F)(F)C(F)(F)[P-](F)(F)(F)(C(F)(F)C(F)(F)F)C(F)(F)C(F)(F)F
activity coefficient (312.8 K): 0.302 ± 0.031
activity coefficient (332.85 K): 0.326 ± 0.032
activity coefficient (354.65 K): 0.331 ± 0.032

CCN(CC)CC [triethylamine] + CCCCCCCCCCn1cc[n+](CCCCCCCCCC)c1C.O=S(=O)([N-]S(=O)(=O)C(F)(F)F)C(F)(F)F
activity coefficient (323.1 K): 3.67 ± 0.25
activity coefficient (333.15 K): 3.17 ± 0.22
activity coefficient (343.15 K): 2.86 ± 0.2

CC(C)OC(C)C [diisopropyl ether] + CCCCCC[n+]1ccn(C)c1.FC(F)(F)C(F)(F)[P-](F)(F)(F)(C(F)(F)C(F)(F)F)C(F)(F)C(F)(F)F
activity coefficient (312.8 K): 1.59 ± 0.1
activity coefficient (332.85 K): 1.7 ± 0.11
activity coefficient (354.65 K): 1.72 ± 0.12

CCCCCCC [heptane] + CCn1cc[n+](C)c1.CS(=O)(=O)[O-]
activity coefficient (312.55 K): 432 ± 30
activity coefficient (322.45 K): 2230 ± 150
activity coefficient (332.45 K): 497 ± 34

CC#N [acetonitrile] + CCn1cc[n+](C)c1.CS(=O)(=O)[O-]
activity coefficient (312.55 K): 1.26 ± 0.081
activity coefficient (322.45 K): 0.818 ± 0.053
activity coefficient (332.45 K): 0.836 ± 0.054

C[N+](=O)[O-] [nitromethane] + CCCCn1cc[n+](C)c1.O=S(=O)([N-]S(=O)(=O)C(F)(F)C(F)(F)F)C(F)(F)C(F)(F)F
activity coefficient (322.55 K): 0.625 ± 0.043
activity coefficient (342.75 K): 0.682 ± 0.046
activity coefficient (362.65 K): 0.699 ± 0.047

CCCCCC [hexane] + CCn1cc[n+](C)c1.CS(=O)(=O)[O-]
activity coefficient (312.55 K): 207 ± 14
activity coefficient (322.45 K): 190 ± 13
activity coefficient (332.45 K): 152 ± 10

CC(C)CO [2-methyl-1-propanol] + CCCCCC[n+]1ccn(C)c1.FC(F)(F)C(F)(F)[P-](F)(F)(F)(C(F)(F)C(F)(F)F)C(F)(F)C(F)(F)F
activity coefficient (312.8 K): 2.77 ± 0.19
activity coefficient (332.85 K): 2.13 ± 0.14
activity coefficient (354.65 K): 1.62 ± 0.11
